Values quoted from earlier work in patent US20170333565A1, “TLR9 TARGETED CYTOTOXIC AGENTS” (H. LEE MOFFITT CANCER CENTER AND RESEARCH INSTITUTE, INC., priority 2014, published 2017).

Test system: myelodysplastic syndromes (MDS)
Details: cited from earlier work

In the case of `Nc1cccc2c1CN(C1CCC(=O)NC1=O)C2=O` (centres unmarked) [LEN, lenalidomide], the clinical response (majority of patients with a chromosome 5q deletion (del5q)) is given as “sustained red blood cell transfusion independence” and the “median duration of response” value (patients with del5q MDS) is given as 2.5 years.
